In PubChem BioAssay AID1963852 (Molecular Pharmacology Branch, DTP, NCI, 2024):

System: 282377-053-R-J1-PDC complex spheroid viability
Assay: Anticancer human tumor 282377-053-R-J1-PDC patient-derived colon adenocarcinoma cell line growth inhibition [POLQ]
Settings: for IC50: curve of first compound; for viability, T/C: stronger effect = lower value
Outline: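 Three-cell-type spheroids modelling solid tumor plus stroma served as the readout system; POL inhibitors were tested individually and in combination, concentration ranges set by clinical Cmax where known.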

[1] = second compound 0.0316 µM, first compound 0.0316 µM
[2] = second compound 0.0316 µM, first compound 0.1 µM
[3] = second compound 0.0316 µM, first compound 0.316 µM
[4] = second compound 0.0316 µM, first compound 1 µM
[5] = second compound 0.0316 µM, first compound 3.16 µM
[6] = second compound 0.0316 µM, first compound 10 µM
[7] = second compound 0.1 µM, first compound 0.0316 µM
[8] = second compound 0.1 µM, first compound 0.1 µM
[9] = second compound 0.1 µM, first compound 0.316 µM
[10] = second compound 0.1 µM, first compound 1 µM
[11] = second compound 0.1 µM, first compound 3.16 µM
[12] = second compound 0.1 µM, first compound 10 µM
[13] = second compound 0.316 µM, first compound 0.0316 µM
[14] = second compound 0.316 µM, first compound 0.1 µM
[15] = second compound 0.316 µM, first compound 0.316 µM
[16] = second compound 0.316 µM, first compound 1 µM
[17] = second compound 0.316 µM, first compound 3.16 µM
[18] = second compound 0.316 µM, first compound 10 µM
[19] = second compound 1 µM, first compound 0.0316 µM
[20] = second compound 1 µM, first compound 0.1 µM
[21] = second compound 1 µM, first compound 0.316 µM
[22] = second compound 1 µM, first compound 1 µM
[23] = second compound 1 µM, first compound 3.16 µM
[24] = second compound 1 µM, first compound 10 µM
[25] = second compound 3.16 µM, first compound 0.0316 µM
[26] = second compound 3.16 µM, first compound 0.1 µM
[27] = second compound 3.16 µM, first compound 0.316 µM
[28] = second compound 3.16 µM, first compound 1 µM
[29] = second compound 3.16 µM, first compound 3.16 µM
[30] = second compound 3.16 µM, first compound 10 µM
[31] = second compound 10 µM, first compound 0.0316 µM
[32] = second compound 10 µM, first compound 0.1 µM
[33] = second compound 10 µM, first compound 0.316 µM
[34] = second compound 10 µM, first compound 1 µM
[35] = second compound 10 µM, first compound 3.16 µM
[36] = second compound 10 µM, first compound 10 µM
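Further: spheroids exposed to compounds for seven days.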
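Wherever viability, T/C is given: 100% = DMSO vehicle control viability.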

For `CCCS(=O)(=O)Nc1ccc(F)c(C(=O)c2c[nH]c3ncc(-c4ccc(Cl)cc4)cc23)c1F` + COC1C(OC(N)=O)C(O)C(Oc2ccc3c(O)c(NC(=O)c4ccc(O)c(CC=C(C)C)c4)c(=O)oc3c2C)OC1(C)C, the IC50 (second compound 0.0316 µM) was 3.55 µM, the IC50 (second compound 0.1 µM) was 4.03 µM and the IC50 (second compound 0.316 µM) was 3.46 µM. It also gave an IC50 (second compound 1 µM) of 3.45 µM, an IC50 (second compound 3.16 µM) of 3.83 µM and an IC50 (second compound 10 µM) of 2.37 µM. For the same compound, the viability, T/C [1] was 91.9%, the viability, T/C [2] was 77.1% and the viability, T/C [3] was 81.1%. For the same compound, the viability, T/C [4] was 56.5%, the viability, T/C [5] was 59.4% and the viability, T/C [6] was 33.2%. For the same compound, the viability, T/C [7] was 86.6%, the viability, T/C [8] was 76.1% and the viability, T/C [9] was 65.7%. The viability, T/C [10] was 68.4%, the viability, T/C [11] was 60% and the viability, T/C [12] was 29.9%. The viability, T/C [13] was 89.8%, the viability, T/C [14] was 65.5% and the viability, T/C [15] was 63.5%. It also gave a viability, T/C [16] of 65.3%, a viability, T/C [17] of 58.4% and a viability, T/C [18] of 32.9%. It also gave a viability, T/C [19] of 108%, a viability, T/C [20] of 63.7% and a viability, T/C [21] of 80.9%. It also gave a viability, T/C [22] of 58.5%, a viability, T/C [23] of 66.5% and a viability, T/C [24] of 30.6%. The viability, T/C [25] was 93.1%, the viability, T/C [26] was 82% and the viability, T/C [27] was 68.7%. The viability, T/C [28] was 54.9%, the viability, T/C [29] was 68.4% and the viability, T/C [30] was 33.2%. For the same compound, the viability, T/C [31] was 89.1%, the viability, T/C [32] was 73.5% and the viability, T/C [33] was 73.1%. It also gave a viability, T/C [34] of 73.3%, a viability, T/C [35] of 42.2% and a viability, T/C [36] of 38%.
Work on `CNCc1ccc(-c2[nH]c3cc(F)cc4c3c2CCNC4=O)cc1` + COC1C(OC(N)=O)C(O)C(Oc2ccc3c(O)c(NC(=O)c4ccc(O)c(CC=C(C)C)c4)c(=O)oc3c2C)OC1(C)C yielded an IC50 (second compound 0.0316 µM) greater than 10 µM, an IC50 (second compound 0.1 µM) greater than 10 µM and an IC50 (second compound 0.316 µM) greater than 10 µM. For the same compound, the IC50 (second compound 1 µM) was greater than 10 µM, the IC50 (second compound 3.16 µM) was greater than 10 µM and the IC50 (second compound 10 µM) was greater than 10 µM. It also gave a viability, T/C [1] of 115%, a viability, T/C [2] of 118% and a viability, T/C [3] of 106%. The viability, T/C [4] was 110%, the viability, T/C [5] was 130% and the viability, T/C [6] was 159%. It also gave a viability, T/C [7] of 113%, a viability, T/C [8] of 106% and a viability, T/C [9] of 104%. The viability, T/C [10] was 108%, the viability, T/C [11] was 122% and the viability, T/C [12] was 152%. For the same compound, the viability, T/C [13] was 104%, the viability, T/C [14] was 98.4% and the viability, T/C [15] was 96.6%. It also gave a viability, T/C [16] of 100%, a viability, T/C [17] of 133% and a viability, T/C [18] of 157%. It also gave a viability, T/C [19] of 102%, a viability, T/C [20] of 99% and a viability, T/C [21] of 121%. The viability, T/C [22] was 103%, the viability, T/C [23] was 128% and the viability, T/C [24] was 160%. It also gave a viability, T/C [25] of 98.7%, a viability, T/C [26] of 111% and a viability, T/C [27] of 97.6%. For the same compound, the viability, T/C [28] was 87.4%, the viability, T/C [29] was 121% and the viability, T/C [30] was 167%. The viability, T/C [31] was 107%, the viability, T/C [32] was 122% and the viability, T/C [33] was 110%. The viability, T/C [34] was 106%, the viability, T/C [35] was 127% and the viability, T/C [36] was 162%.
Work on `Nc1ccn(C2OC(CO)C(O)C2(F)F)c(=O)n1` (stereo not drawn) + COC1C(OC(N)=O)C(O)C(Oc2ccc3c(O)c(NC(=O)c4ccc(O)c(CC=C(C)C)c4)c(=O)oc3c2C)OC1(C)C yielded an IC50 (second compound 0.0316 µM) of 0.0837 µM, an IC50 (second compound 0.1 µM) of 0.138 µM and an IC50 (second compound 0.316 µM) of 0.123 µM. It also gave an IC50 (second compound 1 µM) of 0.114 µM, an IC50 (second compound 3.16 µM) of 0.0909 µM and an IC50 (second compound 10 µM) of 0.0956 µM. For the same compound, the viability, T/C [1] was 80.7%, the viability, T/C [2] was 41.5% and the viability, T/C [3] was 28.9%. It also gave a viability, T/C [4] of 27.2%, a viability, T/C [5] of 22.7% and a viability, T/C [6] of 11.6%. For the same compound, the viability, T/C [7] was 79.7%, the viability, T/C [8] was 60.3% and the viability, T/C [9] was 23%. The viability, T/C [10] was 26%, the viability, T/C [11] was 20.7% and the viability, T/C [12] was 13.5%. It also gave a viability, T/C [13] of 107%, a viability, T/C [14] of 51.5% and a viability, T/C [15] of 32.5%. For the same compound, the viability, T/C [16] was 27.8%, the viability, T/C [17] was 21.1% and the viability, T/C [18] was 12.5%. The viability, T/C [19] was 93%, the viability, T/C [20] was 48% and the viability, T/C [21] was 32%. For the same compound, the viability, T/C [22] was 33.3%, the viability, T/C [23] was 21.8% and the viability, T/C [24] was 10.6%. The viability, T/C [25] was 76.5%, the viability, T/C [26] was 47.1% and the viability, T/C [27] was 27.9%. The viability, T/C [28] was 27.8%, the viability, T/C [29] was 21.3% and the viability, T/C [30] was 11.1%. For the same compound, the viability, T/C [31] was 90.2%, the viability, T/C [32] was 47.2% and the viability, T/C [33] was 28.1%. The viability, T/C [34] was 32.7%, the viability, T/C [35] was 24% and the viability, T/C [36] was 13.8%.
Compound `O=C(c1cc(Cc2n[nH]c(=O)c3ccccc23)ccc1F)N1CCN(C(=O)C2CC2)CC1` + COC1C(OC(N)=O)C(O)C(Oc2ccc3c(O)c(NC(=O)c4ccc(O)c(CC=C(C)C)c4)c(=O)oc3c2C)OC1(C)C has an IC50 (second compound 0.0316 µM) greater than 10 µM, an IC50 (second compound 0.1 µM) greater than 10 µM and an IC50 (second compound 0.316 µM) greater than 10 µM. For the same compound, the IC50 (second compound 1 µM) was greater than 10 µM, the IC50 (second compound 3.16 µM) was greater than 10 µM and the IC50 (second compound 10 µM) was greater than 10 µM. The viability, T/C [1] was 128%, the viability, T/C [2] was 97.7% and the viability, T/C [3] was 105%. The viability, T/C [4] was 106%, the viability, T/C [5] was 79.1% and the viability, T/C [6] was 103%. The viability, T/C [7] was 109%, the viability, T/C [8] was 120% and the viability, T/C [9] was 90.5%. It also gave a viability, T/C [10] of 87.8%, a viability, T/C [11] of 105% and a viability, T/C [12] of 101%. It also gave a viability, T/C [13] of 107%, a viability, T/C [14] of 90.1% and a viability, T/C [15] of 99.1%. The viability, T/C [16] was 97.7%, the viability, T/C [17] was 117% and the viability, T/C [18] was 98%. The viability, T/C [19] was 116%, the viability, T/C [20] was 94.7% and the viability, T/C [21] was 103%. For the same compound, the viability, T/C [22] was 119%, the viability, T/C [23] was 106% and the viability, T/C [24] was 96%. The viability, T/C [25] was 98.8%, the viability, T/C [26] was 108% and the viability, T/C [27] was 113%. The viability, T/C [28] was 103%, the viability, T/C [29] was 107% and the viability, T/C [30] was 98.8%. It also gave a viability, T/C [31] of 94%, a viability, T/C [32] of 99.4% and a viability, T/C [33] of 102%. The viability, T/C [34] was 110%, the viability, T/C [35] was 96% and the viability, T/C [36] was 80.8%.
